Results on 11 compounds are retold here after patent US10556888B2, “Pyrazole compounds or salts thereof, preparation methods therefor, herbicidal compositions and use thereof” (QINGDAO KINGAGROOT CHEMICAL COMPOUNDS CO., LTD, priority 2015, dated 2020).

Series [1] deals with Monocotyledonous and dicotyledonous weed. The series can be described thus: Post-emergence test experiment, weed control effect (Table 2). It counts as in vivo. Also on record: key to weed control effect, Setaria viridis (level) / weed control effect, Rorippa indica (level) / weed control effect, Abutilon theophrasti (level) / weed control effect, Echinochloa crus-galli (level) / weed control effect, Digitaria sanguinalis (level): Level 10: completely dead; Level 9: above 90% growth inhibition rate; Level 8: above 80% growth inhibition rate; Level 7: above 70% growth inhibition rate; Level 6: above 60% growth inhibition rate; Level 5: above 50% growth inhibition rate; Level 4: above 30% growth inhibition rate; Level 3: above 20% growth inhibition rate; Level 2: above 10% growth inhibition rate; Level 1: above 1-10% growth inhibition rate; Level 0: no effect. As to conditions: 3 weeks after spraying, greenhouse. Put shortly:
(§1)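 Compounds, dissolved in acetone, mixed with Tween 80 and diluted in water, were sprayed post-emergence onto greenhouse-grown weeds and crops at the 2-3 leaf stage (2-3 weeks post-sowing). Plants then grown 3 more weeks in the greenhouse before evaluation.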

In series [2] the test system is main crop (wheat, corn, rice, soybean, cotton, oilseed, millet and sorghum). The series can be described thus: Post-emergence test experiment, main crops (Table 2). It counts as in vivo. Also on record: key: Level 10: completely dead; Level 9: above 90% growth inhibition rate; Level 8: above 80% growth inhibition rate; Level 7: above 70% growth inhibition rate; Level 6: above 60% growth inhibition rate; Level 5: above 50% growth inhibition rate; Level 4: above 30% growth inhibition rate; Level 3: above 20% growth inhibition rate; Level 2: above 10% growth inhibition rate; Level 1: above 1-10% growth inhibition rate; Level 0: no effect. As to conditions: 3 weeks after spraying, greenhouse. In outline:
as §1

`CC=CCOCc1c(S(C)(=O)=O)ccc(C(=O)c2cnn(CC)c2OC(=O)c2cnn(C)c2)c1Cl` [Compound 88]: in series [1] (30 g/ha), the “weed control effect, Abutilon theophrasti (level)” value is 6 (Level 6: above 60% growth inhibition rate); the “weed control effect, Bidens pilosa (level)” value is 7 (Level 7: above 70% growth inhibition rate); the “weed control effect, Digitaria sanguinalis (level)” value was 8 (Level 8: above 80% growth inhibition rate); the “weed control effect, Echinochloa crus-galli (level)” value is 7 (Level 7: above 70% growth inhibition rate). Besides, in series [1] (30 g/ha), the “weed control effect, Rorippa indica (level)” value was 10 and the “weed control effect, Setaria viridis (level)” value is recorded as 8 (Level 8: above 80% growth inhibition rate). In addition, in series [2] (30 g/ha), the “effect on crop, corn (level)” value came to 0; the “effect on crop, rice (level)” value is 3 (Level 3: above 20% growth inhibition rate); the “effect on crop, wheat (level)” value amounted to 0.

As for `CCn1nc(C)c(C(=O)c2ccc(S(C)(=O)=O)c(Cn3cccn3)c2Cl)c1OC(=O)c1cn(C)nc1C` [Compound 89], in series [1] (30 g/ha), the “weed control effect, Abutilon theophrasti (level)” value is recorded as 7 (Level 7: above 70% growth inhibition rate); the “weed control effect, Bidens pilosa (level)” value is on record as 7 (Level 7: above 70% growth inhibition rate); the “weed control effect, Digitaria sanguinalis (level)” value is 7 (Level 7: above 70% growth inhibition rate); the “weed control effect, Echinochloa crus-galli (level)” value is 10. Moreover, in series [1] (30 g/ha), the “weed control effect, Rorippa indica (level)” value stood at 10 and the “weed control effect, Setaria viridis (level)” value is recorded as 8 (Level 8: above 80% growth inhibition rate). Also, in series [2] (30 g/ha), the “effect on crop, corn (level)” value was 1 (Level 1: above 1-10% growth inhibition rate); the “effect on crop, rice (level)” value is given as 1 (Level 1: above 1-10% growth inhibition rate); the “effect on crop, wheat (level)” value is on record as 0.

As to `CCn1nc(C2CC2)c(C(=O)c2ccc(S(C)(=O)=O)c(Cn3cc(C)cn3)c2Cl)c1OC(=O)c1cnn(C)c1` [Compound 91], in series [1] (120 g/ha), the “weed control effect, Abutilon theophrasti (level)” value is 6 (Level 6: above 60% growth inhibition rate); the “weed control effect, Bidens pilosa (level)” value is listed as 6 (Level 6: above 60% growth inhibition rate); the “weed control effect, Digitaria sanguinalis (level)” value is given as 1 (Level 1: above 1-10% growth inhibition rate); the “weed control effect, Echinochloa crus-galli (level)” value came to 10. In addition, in series [1] (120 g/ha), the “weed control effect, Rorippa indica (level)” value was 4 (Level 4: above 30% growth inhibition rate) and the “weed control effect, Setaria viridis (level)” value is on record as 3 (Level 3: above 20% growth inhibition rate). Also, in series [2] (120 g/ha), the “effect on crop, corn (level)” value was 0; the “effect on crop, rice (level)” value is on record as 0; the “effect on crop, wheat (level)” value was determined as 0.

In the case of `CCOc1c(C(=O)Oc2c(C(=O)c3ccc(S(C)(=O)=O)c(COC)c3Cl)c(C)nn2CC)cnn1C` [Compound 92], in series [1] (30 g/ha), the “weed control effect, Abutilon theophrasti (level)” value is 5 (Level 5: above 50% growth inhibition rate); the “weed control effect, Bidens pilosa (level)” value is 7 (Level 7: above 70% growth inhibition rate); the “weed control effect, Digitaria sanguinalis (level)” value is reported as 8 (Level 8: above 80% growth inhibition rate); the “weed control effect, Echinochloa crus-galli (level)” value is given as 10. In addition, in series [1] (30 g/ha), the “weed control effect, Rorippa indica (level)” value was 10 and the “weed control effect, Setaria viridis (level)” value was determined as 10. For the same compound, in series [2] (30 g/ha), the “effect on crop, corn (level)” value is reported as 1 (Level 1: above 1-10% growth inhibition rate); the “effect on crop, rice (level)” value was 3 (Level 3: above 20% growth inhibition rate); the “effect on crop, wheat (level)” value is 0.

Regarding `CCOc1c(C(=O)Oc2c(C(=O)c3ccc(S(C)(=O)=O)c(Cn4nc(C)cc4C)c3Cl)cnn2CC)cnn1C` [Compound 93], in series [1] (120 g/ha), the “weed control effect, Abutilon theophrasti (level)” value is reported as 6 (Level 6: above 60% growth inhibition rate); the “weed control effect, Bidens pilosa (level)” value is given as 6 (Level 6: above 60% growth inhibition rate); the “weed control effect, Digitaria sanguinalis (level)” value is 1 (Level 1: above 1-10% growth inhibition rate); the “weed control effect, Echinochloa crus-galli (level)” value is listed as 10. Besides, in series [1] (120 g/ha), the “weed control effect, Rorippa indica (level)” value is on record as 4 (Level 4: above 30% growth inhibition rate) and the “weed control effect, Setaria viridis (level)” value is 3 (Level 3: above 20% growth inhibition rate). For the same compound, in series [2] (120 g/ha), the “effect on crop, corn (level)” value is 0; the “effect on crop, rice (level)” value came out at 0; the “effect on crop, wheat (level)” value came out at 0.

Consider `CCc1nn(CC)c(OC(=O)c2cn(C)nc2C)c1C(=O)c1ccc(S(C)(=O)=O)c(COCC(F)F)c1Cl` [Compound 94], for which, in series [1] (60 g/ha), the “weed control effect, Abutilon theophrasti (level)” value is recorded as 10; the “weed control effect, Bidens pilosa (level)” value is 8 (Level 8: above 80% growth inhibition rate); the “weed control effect, Digitaria sanguinalis (level)” value is 8 (Level 8: above 80% growth inhibition rate); the “weed control effect, Echinochloa crus-galli (level)” value is listed as 8 (Level 8: above 80% growth inhibition rate). Also, in series [1] (60 g/ha), the “weed control effect, Rorippa indica (level)” value is given as 10 and the “weed control effect, Setaria viridis (level)” value is given as 10. In series [2] (60 g/ha), the “effect on crop, corn (level)” value came to 0; the “effect on crop, rice (level)” value was 3 (Level 3: above 20% growth inhibition rate); the “effect on crop, wheat (level)” value is 0.

As to `CCc1nn(CC)c(OC(=O)c2cn(C)nc2C)c1C(=O)c1ccc(S(C)(=O)=O)c(Cn2nc(C)cc2C)c1Cl` [Compound 95], in series [1] (120 g/ha), the “weed control effect, Abutilon theophrasti (level)” value is 6 (Level 6: above 60% growth inhibition rate); the “weed control effect, Bidens pilosa (level)” value is 6 (Level 6: above 60% growth inhibition rate); the “weed control effect, Digitaria sanguinalis (level)” value was 1 (Level 1: above 1-10% growth inhibition rate); the “weed control effect, Echinochloa crus-galli (level)” value is listed as 10. Besides, in series [1] (120 g/ha), the “weed control effect, Rorippa indica (level)” value is listed as 4 (Level 4: above 30% growth inhibition rate) and the “weed control effect, Setaria viridis (level)” value was 3 (Level 3: above 20% growth inhibition rate). In series [2] (120 g/ha), the “effect on crop, corn (level)” value was found to be 0; the “effect on crop, rice (level)” value came out at 0; the “effect on crop, wheat (level)” value came out at 0.

Take `CCOCc1c(S(C)(=O)=O)ccc(C(=O)c2c(C3CC3)nn(C(C)C)c2OC(=O)c2cn(C)nc2C)c1Cl` [Compound 96]: in series [1] (60 g/ha), the “weed control effect, Abutilon theophrasti (level)” value is given as 10; the “weed control effect, Bidens pilosa (level)” value is 8 (Level 8: above 80% growth inhibition rate); the “weed control effect, Digitaria sanguinalis (level)” value is given as 8 (Level 8: above 80% growth inhibition rate); the “weed control effect, Echinochloa crus-galli (level)” value is 10. Besides, in series [1] (60 g/ha), the “weed control effect, Rorippa indica (level)” value is 10 and the “weed control effect, Setaria viridis (level)” value is recorded as 10. Besides, in series [2] (60 g/ha), the “effect on crop, corn (level)” value amounted to 0; the “effect on crop, rice (level)” value was 4 (Level 4: above 30% growth inhibition rate); the “effect on crop, wheat (level)” value is 0.

For the compound `Cc1cnn(Cc2c(S(C)(=O)=O)ccc(C(=O)c3cnn(C(C)C)c3OC(=O)c3cn(C)nc3C)c2Cl)c1` [Compound 97], in series [1] (120 g/ha), the “weed control effect, Abutilon theophrasti (level)” value was 6 (Level 6: above 60% growth inhibition rate); the “weed control effect, Bidens pilosa (level)” value is 6 (Level 6: above 60% growth inhibition rate); the “weed control effect, Digitaria sanguinalis (level)” value is on record as 1 (Level 1: above 1-10% growth inhibition rate); the “weed control effect, Echinochloa crus-galli (level)” value amounted to 10. In series [1] (120 g/ha), the “weed control effect, Rorippa indica (level)” value is 4 (Level 4: above 30% growth inhibition rate) and the “weed control effect, Setaria viridis (level)” value is recorded as 3 (Level 3: above 20% growth inhibition rate). In addition, in series [2] (120 g/ha), the “effect on crop, corn (level)” value came out at 0; the “effect on crop, rice (level)” value was 0; the “effect on crop, wheat (level)” value is listed as 0.

Regarding `Cc1nn(C)cc1C(=O)Oc1c(C(=O)c2ccc(S(C)(=O)=O)c(COCC(F)(F)F)c2Cl)c(C)nn1C(C)C` [Compound 98], in series [1] (30 g/ha), the “weed control effect, Abutilon theophrasti (level)” value is listed as 5 (Level 5: above 50% growth inhibition rate); the “weed control effect, Bidens pilosa (level)” value is 7 (Level 7: above 70% growth inhibition rate); the “weed control effect, Digitaria sanguinalis (level)” value was 8 (Level 8: above 80% growth inhibition rate); the “weed control effect, Echinochloa crus-galli (level)” value worked out at 10. In series [1] (30 g/ha), the “weed control effect, Rorippa indica (level)” value was 10 and the “weed control effect, Setaria viridis (level)” value turned out to be 10. Also, in series [2] (30 g/ha), the “effect on crop, corn (level)” value was 1 (Level 1: above 1-10% growth inhibition rate); the “effect on crop, rice (level)” value was 5 (Level 5: above 50% growth inhibition rate); the “effect on crop, wheat (level)” value came to 0.

In the case of `CCc1nn(C(C)C)c(OC(=O)c2cn(C)nc2C)c1C(=O)c1ccc(S(C)(=O)=O)c(Cn2cccn2)c1Cl` [Compound 99], in series [1] (30 g/ha), the “weed control effect, Abutilon theophrasti (level)” value is 7 (Level 7: above 70% growth inhibition rate); the “weed control effect, Bidens pilosa (level)” value is reported as 7 (Level 7: above 70% growth inhibition rate); the “weed control effect, Digitaria sanguinalis (level)” value was 7 (Level 7: above 70% growth inhibition rate); the “weed control effect, Echinochloa crus-galli (level)” value is 10. For the same compound, in series [1] (30 g/ha), the “weed control effect, Rorippa indica (level)” value stood at 10 and the “weed control effect, Setaria viridis (level)” value was 8 (Level 8: above 80% growth inhibition rate). Further, in series [2] (30 g/ha), the “effect on crop, corn (level)” value is given as 1 (Level 1: above 1-10% growth inhibition rate); the “effect on crop, rice (level)” value is given as 1 (Level 1: above 1-10% growth inhibition rate); the “effect on crop, wheat (level)” value was determined as 0.
